Measured values as given in PubChem BioAssay (NCI).
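Cells were grown in 96-well plates and exposed to each compound for 48 hours at five concentrations; endpoints were interpolated linearly between bracketing concentrations, or set to the highest concentration if not reached. TGI is the concentration that stops growth completely.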

How the values were obtained:
Assay in all cases: NCI-60 cell line screen, 48 h
LOX IMVI melanoma = tested on: LOX IMVI melanoma
HOP-62 NSCLC = tested on: HOP-62 NSCLC
COLO 205 colon = tested on: COLO 205 colon
SK-OV-3 ovarian = tested on: SK-OV-3 ovarian
HOP-92 NSCLC = tested on: HOP-92 NSCLC
SF-539 CNS = tested on: SF-539 CNS
M14 melanoma = tested on: M14 melanoma
HL-60(TB) leukemia = tested on: HL-60(TB) leukemia
SR leukemia = tested on: SR leukemia
U251 CNS = tested on: U251 CNS
HOP-18 NSCLC = tested on: HOP-18 NSCLC
IGROV1 ovarian = tested on: IGROV1 ovarian
786-0 renal = tested on: 786-0 renal
OVCAR-4 ovarian = tested on: OVCAR-4 ovarian
NCI-H23 lung = tested on: NCI-H23 lung
OVCAR-8 ovarian = tested on: OVCAR-8 ovarian
CCRF-CEM leukemia = tested on: CCRF-CEM leukemia
KM12 colon = tested on: KM12 colon
SF-295 CNS = tested on: SF-295 CNS
SNB-78 CNS = tested on: SNB-78 CNS
DMS 273 small cell lung = tested on: DMS 273 small cell lung
OVCAR-5 ovarian = tested on: OVCAR-5 ovarian
SK-MEL-28 melanoma = tested on: SK-MEL-28 melanoma
HT29 colon = tested on: HT29 colon
OVCAR-3 ovarian = tested on: OVCAR-3 ovarian
SNB-19 CNS = tested on: SNB-19 CNS
A549 NSCLC = tested on: A549 NSCLC
UACC-257 melanoma = tested on: UACC-257 melanoma
CAKI-1 renal = tested on: CAKI-1 renal
UO-31 renal = tested on: UO-31 renal
MOLT-4 leukemia = tested on: MOLT-4 leukemia
DLD-1 colon = tested on: DLD-1 colon
K-562 leukemia = tested on: K-562 leukemia
KM20L2 colon = tested on: KM20L2 colon
MALME-3M melanoma = tested on: MALME-3M melanoma
SK-MEL-2 melanoma = tested on: SK-MEL-2 melanoma
XF 498 CNS = tested on: XF 498 CNS
SW-620 colon = tested on: SW-620 colon
DMS 114 small cell lung = tested on: DMS 114 small cell lung
NCI-H226 lung = tested on: NCI-H226 lung
A498 renal = tested on: A498 renal
ACHN renal = tested on: ACHN renal
RPMI-8226 leukemia = tested on: RPMI-8226 leukemia
SK-MEL-5 melanoma = tested on: SK-MEL-5 melanoma
TK-10 renal = tested on: TK-10 renal
M19-MEL melanoma = tested on: M19-MEL melanoma
HCT-116 colon = tested on: HCT-116 colon
SN12C renal = tested on: SN12C renal
NCI-H460 lung = tested on: NCI-H460 lung
HCT-15 colon = tested on: HCT-15 colon
SF-268 CNS = tested on: SF-268 CNS
UACC-62 melanoma = tested on: UACC-62 melanoma
NCI-H522 lung = tested on: NCI-H522 lung
SNB-75 CNS = tested on: SNB-75 CNS
EKVX NSCLC = tested on: EKVX NSCLC
LXFL 529 NSCLC = tested on: LXFL 529 NSCLC
HCC-2998 colon = tested on: HCC-2998 colon
RXF 393 renal = tested on: RXF 393 renal

SMILES: Nc1nc(SCCC/C=C/B(O)O)nc2c1ncn2C1OC(COP(=O)(O)O)C(O)C1O (stereo not given)
- TGI (LOX IMVI melanoma): > 203 µM
- TGI (HOP-62 NSCLC): > 203 µM
- TGI (COLO 205 colon): > 203 µM
- TGI (SK-OV-3 ovarian): > 203 µM
- TGI (HOP-92 NSCLC): > 203 µM
- TGI (SF-539 CNS): > 203 µM
- TGI (M14 melanoma): > 203 µM
- TGI (HL-60(TB) leukemia): > 203 µM
- TGI (SR leukemia): > 203 µM
- TGI (U251 CNS): > 203 µM
- TGI (HOP-18 NSCLC): > 203 µM
- TGI (IGROV1 ovarian): > 203 µM
- TGI (786-0 renal): > 203 µM
- TGI (OVCAR-4 ovarian): > 203 µM
- TGI (NCI-H23 lung): > 203 µM
- TGI (OVCAR-8 ovarian): > 203 µM
- TGI (CCRF-CEM leukemia): > 203 µM
- TGI (KM12 colon): > 203 µM
- TGI (SF-295 CNS): > 203 µM
- TGI (SNB-78 CNS): > 203 µM
- TGI (DMS 273 small cell lung): > 203 µM
- TGI (OVCAR-5 ovarian): > 203 µM
- TGI (SK-MEL-28 melanoma): > 203 µM
- TGI (HT29 colon): > 203 µM
- TGI (OVCAR-3 ovarian): > 203 µM
- TGI (SNB-19 CNS): > 203 µM
- TGI (A549 NSCLC): > 203 µM
- TGI (UACC-257 melanoma): > 203 µM
- TGI (CAKI-1 renal): > 203 µM
- TGI (UO-31 renal): > 203 µM
- TGI (MOLT-4 leukemia): > 203 µM
- TGI (DLD-1 colon): > 203 µM
- TGI (K-562 leukemia): > 203 µM
- TGI (KM20L2 colon): > 203 µM
- TGI (MALME-3M melanoma): > 203 µM
- TGI (SK-MEL-2 melanoma): > 203 µM
- TGI (XF 498 CNS): > 203 µM
- TGI (SW-620 colon): > 203 µM
- TGI (DMS 114 small cell lung): > 203 µM
- TGI (NCI-H226 lung): > 203 µM
- TGI (A498 renal): > 203 µM
- TGI (ACHN renal): > 203 µM
- TGI (RPMI-8226 leukemia): > 203 µM
- TGI (SK-MEL-5 melanoma): > 203 µM
- TGI (TK-10 renal): > 203 µM
- TGI (M19-MEL melanoma): > 203 µM
- TGI (HCT-116 colon): > 203 µM
- TGI (SN12C renal): > 203 µM
- TGI (NCI-H460 lung): > 203 µM
- TGI (HCT-15 colon): > 203 µM
- TGI (SF-268 CNS): > 203 µM
- TGI (UACC-62 melanoma): > 203 µM
- TGI (NCI-H522 lung): > 203 µM
- TGI (SNB-75 CNS): > 203 µM

SMILES: O=C(NC(=S)Nc1ccccc1)c1ccc([N+](=O)[O-])cc1
- TGI (LOX IMVI melanoma): > 100 µM
- TGI (HOP-62 NSCLC): > 100 µM
- TGI (EKVX NSCLC): > 100 µM
- TGI (COLO 205 colon): > 100 µM
- TGI (SK-OV-3 ovarian): > 100 µM
- TGI (HOP-92 NSCLC): > 100 µM
- TGI (LXFL 529 NSCLC): > 100 µM
- TGI (M14 melanoma): > 100 µM
- TGI (HL-60(TB) leukemia): > 100 µM
- TGI (HOP-18 NSCLC): > 100 µM
- TGI (IGROV1 ovarian): > 100 µM
- TGI (786-0 renal): > 100 µM
- TGI (OVCAR-4 ovarian): > 100 µM
- TGI (NCI-H23 lung): > 100 µM
- TGI (OVCAR-8 ovarian): > 100 µM
- TGI (CCRF-CEM leukemia): > 100 µM
- TGI (KM12 colon): > 100 µM
- TGI (SF-295 CNS): > 100 µM
- TGI (SNB-78 CNS): > 100 µM
- TGI (DMS 273 small cell lung): > 100 µM
- TGI (SK-MEL-28 melanoma): > 100 µM
- TGI (HT29 colon): > 100 µM
- TGI (OVCAR-3 ovarian): > 100 µM
- TGI (HCC-2998 colon): > 100 µM
- TGI (A549 NSCLC): > 100 µM
- TGI (UACC-257 melanoma): > 100 µM
- TGI (CAKI-1 renal): > 100 µM
- TGI (UO-31 renal): > 100 µM
- TGI (MOLT-4 leukemia): > 100 µM
- TGI (DLD-1 colon): > 100 µM
- TGI (K-562 leukemia): > 100 µM
- TGI (KM20L2 colon): > 100 µM
- TGI (MALME-3M melanoma): > 100 µM
- TGI (XF 498 CNS): > 100 µM
- TGI (SW-620 colon): > 100 µM
- TGI (DMS 114 small cell lung): 44.5 µM
- TGI (ACHN renal): > 100 µM
- TGI (RPMI-8226 leukemia): > 100 µM
- TGI (SK-MEL-5 melanoma): > 100 µM
- TGI (TK-10 renal): > 100 µM
- TGI (M19-MEL melanoma): > 100 µM
- TGI (HCT-116 colon): > 100 µM
- TGI (SN12C renal): > 100 µM
- TGI (NCI-H460 lung): > 100 µM
- TGI (HCT-15 colon): > 100 µM
- TGI (SF-268 CNS): > 100 µM
- TGI (UACC-62 melanoma): > 100 µM
- TGI (NCI-H522 lung): 86.6 µM
- TGI (SNB-75 CNS): > 100 µM

SMILES: CCC(C)CN1C(=O)NC(Cc2ccccc2)C1=O (stereo not given)
- TGI (LOX IMVI melanoma): > 100 µM
- TGI (HOP-62 NSCLC): > 100 µM
- TGI (EKVX NSCLC): > 100 µM
- TGI (HOP-92 NSCLC): 90.8 µM
- TGI (LXFL 529 NSCLC): > 100 µM
- TGI (SF-539 CNS): > 100 µM
- TGI (M14 melanoma): > 100 µM
- TGI (SR leukemia): > 100 µM
- TGI (U251 CNS): > 100 µM
- TGI (HOP-18 NSCLC): > 100 µM
- TGI (NCI-H23 lung): > 100 µM
- TGI (OVCAR-8 ovarian): > 100 µM
- TGI (KM12 colon): > 100 µM
- TGI (SF-295 CNS): > 100 µM
- TGI (SNB-78 CNS): > 100 µM
- TGI (DMS 273 small cell lung): > 100 µM
- TGI (OVCAR-5 ovarian): > 100 µM
- TGI (SK-MEL-28 melanoma): > 100 µM
- TGI (HT29 colon): > 100 µM
- TGI (HCC-2998 colon): > 100 µM
- TGI (SNB-19 CNS): > 100 µM
- TGI (A549 NSCLC): > 100 µM
- TGI (UACC-257 melanoma): 79.5 µM
- TGI (CAKI-1 renal): > 100 µM
- TGI (UO-31 renal): > 100 µM
- TGI (DLD-1 colon): > 100 µM
- TGI (KM20L2 colon): > 100 µM
- TGI (MALME-3M melanoma): > 100 µM
- TGI (SK-MEL-2 melanoma): > 100 µM
- TGI (XF 498 CNS): > 100 µM
- TGI (RXF 393 renal): > 100 µM
- TGI (SW-620 colon): > 100 µM
- TGI (DMS 114 small cell lung): > 100 µM
- TGI (NCI-H226 lung): > 100 µM
- TGI (ACHN renal): > 100 µM
- TGI (TK-10 renal): > 100 µM
- TGI (M19-MEL melanoma): > 100 µM
- TGI (SN12C renal): > 100 µM
- TGI (NCI-H460 lung): > 100 µM
- TGI (SF-268 CNS): > 100 µM
- TGI (NCI-H522 lung): > 100 µM
- TGI (SNB-75 CNS): > 100 µM
